Results on 38 compounds are retold here after patent US20050090522A1 (priority 2001, published 2005).

pEC50: −log10 of the molar value. A value given as a limit tells only on which side of the number the result lay.

One may read the pEC50 as the negative decadic logarithm of the EC50, by convention in mol/L.

One test has as its system HIV-1. Description: HIV-1 single-round infectious luciferase reporter virus (pseudotype) assay in HeLa CD4 CCR5 cells. The class given is cell-based. The conditions noted are these: Human immunodeficiency virus 1, HeLa-CD4/CCR5, read-out: EC50 Group from TABLE 1, HeLa CD4 CCR5 cells, single-round infectious luciferase reporter virus. In short, it runs like this: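 Reporter pseudovirus produced in 293 cells infected HeLa cells expressing CD4/CCR5 at MOI ~0.01, with compound present at <10 μM final. Infection was quantified as luciferase luminescence after 72 h.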
Take `COc1cnc(-n2ccc(-c3ccc(C)nc3)n2)c2[nH]cc(C(=O)C(=O)N3CCN(C(=O)c4ccccc4)CC3)c12` [Example 264, 1-benzoyl-4-[(4-methoxy-7-(3-(2-methylpyridin-5-yl)pyrazol-1-yl)-6-azaindol-3-yl)-oxoacetyl]piperazine]: the pEC50 was greater than 6.00.
On the same count and under the same terms, with `COc1cnc(-n2ccc(CC(C)O)n2)c2[nH]cc(C(=O)C(=O)N3CCN(C(=O)c4ccccc4)CC3)c12` (centres unmarked) [Example 277, 1-benzoyl-4-[(4-methoxy-7-(3-(2-hydroxylpropyl)-pyrazol-1-yl)-6-azaindol-3-yl)-oxoacetyl]piperazine] the figure was greater than 6.00; with `COc1cnc(-n2ccc(C3=CCCCC3)n2)c2[nH]cc(C(=O)C(=O)N3CCN(C(=O)c4ccccc4)CC3)c12` [Example 278, 1-benzoyl-4-[(4-methoxy-7-(3-(cyclohexen-1-yl)-pyrazol-1-yl)-6-azaindol-3-yl)-oxoacetyl]piperazine], greater than 6.00; with `COc1cnc(-n2ccc(CCCC#N)n2)c2[nH]cc(C(=O)C(=O)N3CCN(C(=O)c4ccccc4)CC3)c12` [Example 279, 1-benzoyl-4-[(4-methoxy-7-(3-(3-cyano-propan-1-yl)-pyrazol-1-yl)-6-azaindol-3-yl)-oxoacetyl]piperazine], greater than 6.00.
`COc1cnc(-n2ccc(CN3CCS(=O)(=O)CC3)n2)c2[nH]cc(C(=O)C(=O)N3CCN(C(=O)c4ccccc4)CC3)c12` [Example 280, 1-benzoyl-4-[(4-methoxy-7-(3-(1,1-dioxo-thiomorpholin-4-yl)methyl-pyrazol-1-yl)-6-azaindol-3-yl)-oxoacetyl]piperazine]: the pEC50 is greater than 6.00.
Same read-out and setting: with `COc1cnc(-n2ccc(CC(C)C)n2)c2[nH]cc(C(=O)C(=O)N3CCN(C(=O)c4ccccc4)CC3)c12` [Example 281, 1-benzoyl-4-[(4-methoxy-7-(3-isobutyl-pyrazol-1-yl)-6-azaindol-3-yl)-oxoacetyl]piperazine] the figure was greater than 6.00.
On the same count and under the same terms, then `COc1cnc(-n2ccc(C3(O)CCCC3)n2)c2[nH]cc(C(=O)C(=O)N3CCN(C(=O)c4ccccc4)CC3)c12` [Example 282, 1-benzoyl-4-[(4-methoxy-7-(3-(1-hydroxy-cyclopentyl)-pyrazol-1-yl)-6-azaindol-3-yl)-oxoacetyl]piperazine], with greater than 6.00; and `CNCc1ccn(-c2ncc(OC)c3c(C(=O)C(=O)N4CCN(C(=O)c5ccccc5)CC4)c[nH]c23)n1` [Example 283, 1-benzoyl-4-[(4-methoxy-7-(3-methylaminomethyl-pyrazol-1-yl)-6-azaindol-3-yl)-oxoacetyl]piperazine], with greater than 6.00.
On the same count and under the same terms, then `COc1cnc(-n2ccc(C(O)C(C)C)n2)c2[nH]cc(C(=O)C(=O)N3CCN(C(=O)c4ccccc4)CC3)c12` (centres unmarked) [Example 284, 1-benzoyl-4-[(4-methoxy-7-(3-(1-hydroxy-2-methyl-propyl)-pyrazol-1-yl)-6-azaindol-3-yl)-oxoacetyl]piperazine], with greater than 6.00; and `CCOC(=O)c1ccc(OCc2ccn(-c3ncc(OC)c4c(C(=O)C(=O)N5CCN(C(=O)c6ccccc6)CC5)c[nH]c34)n2)cc1` [Example 285, 1-benzoyl-4-[(4-methoxy-7-(3-(4-ethoxycarbonyl-phenyl)oxymethyl-pyrazol-1-yl)-6-azaindol-3-yl)-oxoacetyl]piperazine], with greater than 6.00.
In the case of `COc1cnc(-n2ccc(S(=O)(=O)c3ccc(C)cc3)n2)c2[nH]cc(C(=O)C(=O)N3CCN(C(=O)c4ccccc4)CC3)c12` [Example 286, 1-benzoyl-4-[(4-methoxy-7-(3-(toluene-4-sulfonyl)-pyrazol-1-yl)-6-azaindol-3-yl)-oxoacetyl]piperazine], the pEC50 was greater than 6.00.
Same read-out and setting: with `COc1cnc(-n2ccc(-c3cccc(C(F)(F)F)c3)n2)c2[nH]cc(C(=O)C(=O)N3CCN(C(=O)c4ccccc4)CC3)c12` [Example 287, 1-benzoyl-4-[(4-methoxy-7-(3-(3-trifluoromethyl-phenyl)-pyrazol-1-yl)-6-azaindol-3-yl)-oxoacetyl]piperazine] the figure was greater than 6.00.
The same measure, in the same setting: with `COc1cnc(-n2ccc(-c3ccc(C(F)(F)F)cc3)n2)c2[nH]cc(C(=O)C(=O)N3CCN(C(=O)c4ccccc4)CC3)c12` [Example 288, 1-benzoyl-4-[(4-methoxy-7-(3-(4-trifluoromethyl-phenyl)-pyrazol-1-yl)-6-azaindol-3-yl)-oxoacetyl]piperazine] the figure was greater than 6.00; with `CCCSc1ncn(-c2ncc(OC)c3c(C(=O)C(=O)N4CCN(C(=O)c5ccccc5)CC4)c[nH]c23)n1` [Example 289, 1-benzoyl-4-[(4-methoxy-7-(3-propylsulfanyl-[1,2,4]triazol-1-yl)-6-azaindol-3-yl)-oxoacetyl]piperazine], greater than 6.00; with `CCCS(=O)(=O)c1ncn(-c2ncc(OC)c3c(C(=O)C(=O)N4CCN(C(=O)c5ccccc5)CC4)c[nH]c23)n1` [Example 290, 1-benzoyl-4-[(4-methoxy-7-(3-(propane-1-sulfonyl)-[1,2,4]triazol-1-yl)-6-azaindol-3-yl)-oxoacetyl]piperazine], greater than 6.00.
Still for that read-out and setting: then `COc1ncn(-c2ncc(OC)c3c(C(=O)C(=O)N4CCN(C(=O)c5ccccc5)CC4)c[nH]c23)n1` [Example 291, 1-benzoyl-4-[(4-methoxy-7-(3-methoxy-[1,2,4]triazol-1-yl)-6-azaindol-3-yl)-oxoacetyl]piperazine], with greater than 6.00.
For the compound `COc1cnc(-n2ccc(-c3ccc(C(=O)O)cc3)n2)c2[nH]cc(C(=O)C(=O)N3CCN(C(=O)c4ccccc4)CC3)c12` [Example 292, 1-benzoyl-4-[(4-methoxy-7-(3-(4-hydroxylcarbonylphenyl)-pyrazol-1-yl)-6-azaindol-3-yl)-oxoacetyl]piperazine], the pEC50 was greater than 6.00.
Still for that read-out and setting: then `COC(=O)c1ccc(-c2ccn(-c3ncc(OC)c4c(C(=O)C(=O)N5CCN(C(=O)c6ccccc6)CC5)c[nH]c34)n2)cc1` [Example 293, 1-benzoyl-4-[(4-methoxy-7-(3-(4-methoxycarbonylphenyl)-pyrazol-1-yl)-6-azaindol-3-yl)-oxoacetyl]piperazine], with greater than 6.00; and `COc1cnc(-n2ccc(-c3cccc(C(=O)O)c3)n2)c2[nH]cc(C(=O)C(=O)N3CCN(C(=O)c4ccccc4)CC3)c12` [Example 294, 1-benzoyl-4-[(4-methoxy-7-(3-(3-hydroxylcarbonylphenyl)-pyrazol-1-yl)-6-azaindol-3-yl)-oxoacetyl]piperazine], with greater than 6.00; and `CNc1nc(-c2ncc(F)c3c(C(=O)C(=O)N4CCN(C(=O)c5ccccc5)CC4)c[nH]c23)no1` [Example 298], with greater than 6.00.
Still for that read-out and setting: with `CCOC(=O)c1cc(C)nn1-c1ncc(F)c2c(C(=O)C(=O)N3CCN(C(=O)c4ccccc4)CC3)c[nH]c12` [Example 311] the figure was greater than 6.00.
`COc1cnc(-n2ncnc2C)c2[nH]cc(C(=O)C(=O)N3CCN(C(=O)c4ccccc4)CC3)c12` [Example 319]: the pEC50 is greater than 6.00.
Same read-out and setting: then `COCc1ncn(-c2ncc(OC)c3c(C(=O)C(=O)N4CCN(C(=O)c5ccccc5)CC4)c[nH]c23)n1` [Example 323], with greater than 6.00; and `COc1cnc(-n2cnc(CCC(=O)O)c2)c2[nH]cc(C(=O)C(=O)N3CCN(C(=O)c4ccccc4)CC3)c12` [Example 329], with greater than 6.00; and `COc1cnc(Nc2ccccn2)c2[nH]cc(C(=O)C(=O)N3CCN(C(=O)c4ccccc4)CC3)c12` [Example 330], with greater than 6.00.
For `COc1cnc(N(c2ccccn2)S(C)(=O)=O)c2[nH]cc(C(=O)C(=O)N3CCN(C(=O)c4ccccc4)CC3)c12` [Example 331], the pEC50 was greater than 6.00.

The same test, now with this note: Human immunodeficiency virus 1, HeLa-CD4/CCR5, read-out: EC50 Group from Table 1, Table 2-1; HeLa CD4 CCR5 cells, single-round luciferase reporter virus.
Regarding `COc1cnc(-n2ccc(-c3ccc(C)nc3)n2)c2[nH]cc(C(=O)C(=O)N3CCN(C(=O)c4ccccc4)[C@H](C)C3)c12` [Example 263, (R)-1-benzoyl-2-methyl-4-[(4-methoxy-7-(3-(2-methylpyridin-5-yl)pyrazol-1-yl)-6-azaindol-3-yl)-oxoacetyl]piperazine], the pEC50 is greater than 6.00.
The same measure, in the same setting: then `COc1cnc(-n2ccc(C(C)n3cncn3)n2)c2[nH]cc(C(=O)C(=O)N3CCN(C(=O)c4ccccc4)[C@H](C)C3)c12` (some centres unmarked) [Example 265], with greater than 6.00; and `COc1cnc(-c2cnc(N)cn2)c2[nH]cc(C(=O)C(=O)N3CCN(C(=O)c4ccccn4)[C@H](C)C3)c12` [Example 267], with greater than 6.00.
Still for that read-out and setting: then `COc1cnc(-c2ccc(S(C)(=O)=O)cc2)c2[nH]cc(C(=O)C(=O)N3CCN(C(=O)c4ccccn4)[C@H](C)C3)c12` [Example 268], with greater than 6.00.
The same measure, in the same setting: then `COc1cnc(-c2cnccn2)c2[nH]cc(C(=O)C(=O)N3CCN(C(=O)c4cccnc4)[C@H](C)C3)c12` [Example 270], with greater than 6.00; and `COc1cnc(-c2cnc(O)cn2)c2[nH]cc(C(=O)C(=O)N3CCN(C(=O)c4ccccc4)[C@H](C)C3)c12` [Example 271], with greater than 6.00.
For `COc1cnc(-c2cnc(O)cn2)c2[nH]cc(C(=O)C(=O)N3CCN(C(=O)c4ccccn4)[C@H](C)C3)c12` [Example 272], the pEC50 was greater than 6.00.
The same measure, in the same setting: with `COc1cnc(-c2nc(-c3ccccc3)n[nH]2)c2[nH]cc(C(=O)C(=O)N3CCN(C(=O)c4ccccc4)[C@H](C)C3)c12` [Example 335] the figure was greater than 6.00; with `CCc1n[nH]c(-c2ncc(OC)c3c(C(=O)C(=O)N4CCN(C(=O)c5ccccc5)[C@H](C)C4)c[nH]c23)n1` [Example 336], greater than 6.00.
Consider `COc1cnc(-c2nc(-c3ccc(C)cc3)n[nH]2)c2[nH]cc(C(=O)C(=O)N3CCN(C(=O)c4ccccc4)[C@H](C)C3)c12` [Example 337], for which the pEC50 was greater than 6.00.
Still for that read-out and setting: with `COc1cnc(-c2nc(-c3cccnc3)n[nH]2)c2[nH]cc(C(=O)C(=O)N3CCN(C(=O)c4ccccc4)[C@H](C)C3)c12` [Example 338] the figure was greater than 6.00.
The same measure, in the same setting: then `COc1cnc(-c2nc(-c3cccc(Cl)c3)n[nH]2)c2[nH]cc(C(=O)C(=O)N3CCN(C(=O)c4ccccc4)[C@H](C)C3)c12` [Example 339], with greater than 6.00.
